Results from US11839210B1, “Plant growth promoter with strigolactones regulation activities” (King Abdullah University of Science and Technology, priority 2017, dated 2023).

Columns and labels:
epi-5DS (5-deoxystrigol) = assay: LC-MS/MS levels of epi-5DS in rice root exudates and roots; assay type: in vivo; settings: −Pi, 5 μM zaxinone
Procedure: For the analysis of SLs, one week-old seedlings were further transferred into 50 ml falcon tube (three seedlings per tube) containing Hoagland nutrient solution with K2HPO4·2H2O (+Pi) and grown in the growth cabinet for one week. The rice seedlings were then subjected to phosphate deficiency for another one week period. On the day of root exudates collection, rice seedlings were first treated with 5 μM zaxinone for 6 h and then root exudates and root tissues were collected from each tube for LC-MS/MS analysis and Striga bioassays.
For the quantification of 4-deoxyorobanchol in rice root exudates, 50 ml of root exudate spiked with 0.672 ng of D6-5-deoxystrigol, was brought on a 500 mg/3 ml fast SPE C18 column preconditioned with 6 ml of methanol and 6 ml of water. After washing with 6 ml of water, strigolactones were eluted in 5 ml of acetone. The 4-deoxyorobanchol fraction (acetone-water solution) was concentrated to SLs aqueous solution (˜1 ml), followed by extraction with 1 ml of ethyl acetate. Then 750 μl of 4-deoxyorobanchol enriched organic phase was transferred to a 1.5 ml tube and evaporated to dryness under vacuum. The residue was dissolved in 100 μl of acetonitrile:water (25:75, v:v) and filtered through a 0.22 μm filter for LC-MS/MS analysis.
For the quantification of 4-deoxyorobanchol in rice root, plant tissue material was lyophilized and ground. 30 mg root tissue spiked with 0.672 ng of D6-5-deoxystrigol was extracted with 2 ml of ethyl acetate in an ultrasound bath (Branson 3510 ultrasonic bath) for 15 minutes, followed by centrifugation for 8 minutes at 3800 rpm at 4° C. The supernatant was collected and the pellet was re-extracted with 2 ml of ethyl acetate. The two supernatants were then combined and dried under vacuum. The residue was dissolved in 100 μl of ethyl acetate and 2 ml of hexane. The resulting extract solution was loaded on a Silica gel SPE column (500 mg/3 ml) preconditioned with 3 ml of ethyl acetate and 3 ml of Hexane. After washing with 3 ml of Hexane, 4-deoxyorobanchol was eluted in 3 ml of ethyl acetate and evaporated to dryness under vacuum. The residue was re-dissolved in 200 μl of acetonitrile:water (25:75, v:v) and filtered through a 0.22 μm filter for LC-MS/MS analysis.
4-Deoxyorobanchol was analyzed by using HPLC-Q-Trap-MS/MS with MRM mode. Chromatographic separation was achieved on an Agilent 1200 HPLC system with an Acquity UPLC BEH C18 column (50×2.1 mm; 1.7 μm; Waters Corp.). Mobile phases consisted of water:acetonitrile (95:5, v:v, A) and acetonitrile (B), both containing 0.1% formic acid. […]
The levels of epi-5DS (5-deoxystrigol) in root exudates (FIG. 15A) and roots (FIG. 15B) for WT and zas mutant rice under −Pi conditions (phosphate deficient) with zaxinone (5 μM) treatment were determined by LC-MS/MS. […]

[1] = system: mycorrhizal wild-type and zas mutant rice plants; assay: Zaxinone effect on mycorrhizal rice plants (phenotype and AM colonization); assay type: in vivo, Oryza sativa Nipponbare
Procedure: Seeds of WT (cv. Nipponbare) and zas mutant were germinated in pots containing sand and incubated for 10 days in a growth chamber under conditions having a 14 h light (23° C.)/10 h dark (21° C.) cycle. Plants used for mycorrhization were inoculated with Funelliformis mosseae (BEG 12, MycAgroLab, France) or Rhizophagus irregularis (INOQ GmbH, Germany) Both fungi inocula (25%) were mixed with sterile quartz sand and used for colonization. Plants were watered with a modified Long-Ashton (LA) solution containing 3.2 μM Na2HPO4·12H2O and were grown in a growth chamber under the 14 h light (24° C.)/10 h dark (20° C.) regime.
Wild-type and zas mycorrhizal plants were grown in sand and watered twice a week with different concentrations of zaxinone (5 μM; 0.5 μM; 50 nM) directly applied in the Long Ashton nutrient solution. Data were collected 35 days post germination (dpg).
Wild-type and zas mycorrhizal roots were stained with 0.1% cotton blue in lactic acid and the estimation of mycorrhizal parameters was performed using MYCOCALC. For the molecular analyses, roots were immediately frozen in liquid nitrogen and stored at −80° C.
Mycorrizhal plants were grown in sand and watered with Long Ashton solution (3.2 μM Pi) for five weeks post AM fungus inoculation. FIGS. 23A-23F show the effect of twice a week treatment with zaxinone (5 μM) for wild-type (WT) and zas mutant (zas) plants. Data are means±SE, n=9 plants. Different letters above the bars indicate significant differences according to Tukey's test (P<0.05).

## CC(=O)/C=C/C=C(C)/C=C/C1=C(C)C[C@@H](O)CC1(C)C [zaxinone, 3-OH-β-apo-13-carotenone]
epi-5DS (5-deoxystrigol); WT rice
  decrease of epi-5DS level in root exudates, mock to zaxinone: around 75%
  decrease of epi-5DS level in roots, mock to zaxinone: around 50%
epi-5DS (5-deoxystrigol); zas mutant rice
  decrease of epi-5DS level in root exudates, mock to zaxinone: approximately 64%
  decrease of epi-5DS level in roots, mock to zaxinone: around 75%
[1]; 5 μM zaxinone
  AM colonization capacity: did not improve
[1]; WT mycorrhizal plants, 5 μM zaxinone twice a week, five weeks
  growth vs Mock treatment: did not significantly differ
[1]; zas mutant mycorrhizal plants, 5 μM zaxinone twice a week, five weeks
  crown root number, root biomass, shoot length and shoot biomass: significant increase
